Patent US20240067621A1, “POLYFLUORINATED CANNABINOID AND CANNABINOID-LIKE COMPOUNDS AND METHODS OF SYNTHESIS AND USE THEREOF” (The Board of Regents For The Oklahoma Agricultural And …, priority 2021, published 2024)

How the values were obtained:
cannabinoid receptors = details: natural (trans) THC versus its cis counterpart; cited from earlier work

CCCCCc1cc(O)c2c(c1)OC(C)(C)[C@@H]1CCC(C)=C[C@@H]21 [THC, trans-Δ^9 -tetrahydrocannabinol]
affinity for cannabinoid receptors (cannabinoid receptors): higher affinity

COC(=O)C1=CCC(C(C)(C)C)=CC1c1c(F)c(F)c(C#N)c(F)c1F (centres unmarked)
melting point: 108 to 110 °C

COC(=O)C1=CCC(C(C)(C)C)=CC1c1c(F)c(F)nc(F)c1F (centres unmarked)
melting point: 59 to 60 °C

COC(=O)C1=CCC(C)=CC1c1c(F)c(F)c(C(F)(F)F)c(F)c1F (centres unmarked)
melting point: 104 to 105 °C

COC(=O)C1=CCC(C)=CC1c1c(F)c(F)nc(F)c1F (centres unmarked)
melting point: 93 to 96 °C

COC(=O)C1=CCC(OC(=O)OC(C)(C)C)=CC1c1c(F)c(F)c(C#N)c(F)c1F (centres unmarked)
melting point: 104 to 105 °C

COC(=O)C1=CCC(C)=CC1c1c(F)c(F)c(C(=O)OC)c(F)c1F (centres unmarked)
melting point: 91 to 95 °C

CC1=CC(c2c(F)c(F)c(C#N)c(F)c2F)C(C#N)=CC1 (centres unmarked)
melting point: 117 to 120 °C
